Results as given in patent publication US20120053076A1, “METHODS FOR IDENTIFICATION” (Cambridge Enterprise Limited, priority 2009, published 2012).

Assays:
[1] = tested on: THP-1 cells; assay: MCP-1 induced THP-1 cell migration, Transwell assay; assay type: cell-based, human
Description: Leukocyte migration was measured using the 96-well format micro Transwell® assay system from Neuroprobe (Gaithersburg, Md., USA). In principle, this assay consists of two chambers separated by a porous membrane. The chemoattractant is placed in the lower compartment and the cells are placed in the upper compartment.
The method was performed essentially as previously described (Reckless & Grainger (1999) Biochem. J. 340:803-11).
First, the cell suspension to be placed in the upper compartment was prepared. The THP-1 cells were pelleted by centrifugation (770×g; 4 mins) and washed with Geys Balanced Salt Solution with 1 mg/ml BSA (GBSS+BSA). This wash was then repeated, and the cells re-pelleted before being resuspended in a small volume of GBSS+BSA for counting, for example using a standard haemocytometer.
The volume of GBSS+BSA was then adjusted depending on the number of cells present so that the cells were at final density of 4.45×10^6 cells per ml of GBSS+BSA. This ensured that there were 100,000 THP-1 cells in each 25 μl of the solution to be placed in the upper chamber of the plate.
The suspension of THP-1 cells at 4.45×10^6 cells/ml was divided into three pots. […] To the second pot, the BSCI was added at the same concentration as in the first pot, but additionally the sstr2 antagonist was also added (for example BIM 23454 [Tulipano et al. (2002) 143:1218-24] or BIM 23627 were added at 66 nM final concentration from a stock solution in GBSS). To the third pot, GBSS+BSA plus vehicle as appropriate was added so that the volumes in three pots are equal, acting as a control.
Next, the chemoattractant solution to be placed in the lower compartment was prepared. MCP-1 was diluted in GBSS+BSA to give a final concentration of 25 ng/ml (after all additions). Note that, as recommended by Frow et al (Med. Res. Rev. 24:276-98) this is the concentration of MCP-1 which induces maximal migration in this system. This solution was divided into three pots, as for the cell suspension. To one pot, the BSCI was added to the same final concentration as was added to the cell suspension, in the second pot the BSCI and the sstr2 antagonist were both added at the same concentration as previously added to the cell suspension, while to the remaining pot GBSS+BSA plus vehicle as appropriate was added so that the volumes in the three pots were equal.
Once the chemoattractant solutions for the lower wells and cell solutions for the upper chambers were prepared, the migration chamber was assembled. 29 μl of the appropriate chemoattractant solution was placed into the lower well of the chamber. Assays were performed with at least triplicate determinations of each condition. Once all the lower chambers were filled, the porous membrane was applied to the chamber in accordance with the manufacturer's instructions. Finally, 25 μl of the appropriate cell solution was applied to each upper chamber. A plastic lid was placed over the entire apparatus to prevent evaporation.
The assembled chamber was incubated at 37° C., 5% CO2, for 2 hours.
At the end of the incubation, the liquid cell suspension was gently removed from the upper chamber, 20 μl of ice-cold 20 mM EDTA in PBS was added to the upper chamber, and the apparatus was incubated at 4° C. for 15 mins. This procedure caused any cells adhering to the underside of the membrane to fall into the lower chamber.
After this incubation the filter was carefully flushed with GBSS+BSA to wash off the EDTA, and then the filter was removed.
The number of cells migrated into the lower chamber under each condition can then be determined by a number of methods, including direct counting, labelling with fluorescent or radioactive markers or through the use of a vital dye. Typically, we utilised the vital dye MTT.

[2] = tested on: TNF-alpha production in response to bacterial endotoxin; assay: Sub-lethal endotoxemia model, serum TNF-alpha after LPS; assay type: in vivo; conditions: mouse, serum 2 hours after LPS
Description: We selected the sub-lethal endotoxemia model in mouse, because this has been well characterised in our laboratory (see for example Fox et al. (2002) J. Med. Chem. 45:360-70; Fox et al. (2005) J. Med. Chem. 48:867-74). The extent of systemic inflammation in response to a single intraperitoneal injection of bacterial lipopolysaccharide (LPS) can be estimated by measuring serum TNF-alpha 2 hours post challenge.
Methods: Mice (CD1 strain; adult males; 6 per group) were treated with BSCI (in an appropriate vehicle) or with vehicle alone by an appropriate route. […] Simultaneously, one set of mice at each BSCI concentration received BIM 23627 at […] by sub-cutaneous injection (a treatment condition known to suppress classical sstr2-mediated signalling, such as GH release, in rats; Tulipano et al. (2002) 143:1218-24). […]
After, a further 2 hours, the animals were sacrificed by CO2 asphyxiation, and blood was drawn by cardiac puncture. Serum was prepared by conventional methods, and the level of TNF-alpha in serum was measured using an ELISA (R&D Systems; Murine Quantikine code# MTA00) performed in accordance with the manufacturer's instructions. […]

[3] = tested on: fetal rat pituicytes; assay: Rat pituicyte GH suppression assay; assay type: cell-based
Description: Two different assays for “classical” sstr2 functions were adopted: (1) cultured foetal rat pituitary cells secreted growth hormone which is inhibited by sstr2 agonists in a dose-dependent fashion and (2) selected glucose-sensitive sub-clones of the human Panc-1 cell line secrete insulin which is inhibited by sstr2 agonists in a dose-dependent fashion.
Methods: Cultures of fetal rat pituicytes were established exactly as previously described (Murray et al. (2004) J. Clin. Endocrinol. Metab. 89:3027-32) by enzymatic dispersion. After 48 hrs in low glucose DMEM plus 10% FCS, cells in 48 well plates (5×10^4 cells per well) were washed for 4 hrs in serum-free DMEM and then incubated with test agents at various concentrations for a further 24 hrs in serum-free DMEM. At the end of this period, the conditioned medium was harvested, any cell debris removed by centrifugation and assayed for GH using a commercially available ELISA (Linco; cat# EZRMGH-45K) in accordance with the manufacturer's instructions.
Results were reported as the mean±SD, expressed as the fold change from cells in the presence of vehicle only.

[4] = tested on: rat peripheral blood leukocytes; assay: Rat chemokine-induced PBMC migration assay; assay type: cell-based; conditions: Table 3

| Compound | Human chemokine-induced THP-1 migration assay Max effect ([1]; Table 3) [%] | Chemokine-induced THP-1 cell migration assay (“BSCI” target) Max Effect ([1]; Table 5) [%] | Inhibition of TNF-alpha production in response to endotoxin, in words [2] | Inhibition of GH release, in words [3] | EC50 ([3]; Table 3, read-out: Rat pituicyte GH suppression assay ED50) [nM] | Rat pituicyte GH suppression assay Max effect ([3]; Table 3, suppression compared to vehicle) [%] | Rat chemokine-induced PBMC migration assay Max effect [4] [%] | Emax ([1]; Homo sapiens, THP-1, read-out: Human chemokine-induced THP-1 migration assay Max effect) [%] | Inhibition of MCP-1 induced THP-1 cell migration, in words ([1]; MCP-1 25 ng/ml) | Emax ([4]; Rattus norvegicus, Leukocyte, read-out: Rat chemokine-induced PBMC migration assay Max effect) [%] |
| --- | --- | --- | --- | --- | --- | --- | --- | --- | --- | --- |
| (S)-3-(2′,2′-dimethyldodecanoyl)amino-caprolactam [BN83250] | 100 | 100 | dramatically inhibited | inhibited GH release only at much higher concentrations | 320 | 63 | 100 | – | – | – |
| CC(C)(C)C(=O)N[C@H]1CCCNC1=O [Valerolactam, (S)-3-(2′,2′-dimethylpropionoylamino)-tetrahydropyridin-2-one] | – | – | dramatically inhibited | inhibited GH release only at much higher concentrations | – | – | – | 100 | inhibits MCP-1 induced cell migration in a dose-dependent manner | 100 |
